Test results: ChEMBL document CHEMBL1152471 (2008)

How the values were obtained:
Type in all cases: functional
[1] = system: Mycobacterium tuberculosis; test: Antituberculosis activity against Mycobacterium tuberculosis by bactec 460 TB method
[2] = system: Mycobacterium tuberculosis; test: Antituberculosis activity against Mycobacterium tuberculosis by bactec MGIT 960 method
[3] = system: Mycolicibacterium smegmatis; test: Antituberculosis activity against linezolid-resistant Mycobacterium smegmatis without mutation in 23S rRNA

Measured: MIC

CC(=O)NC[C@H]1CN(c2ccc(N3CCOCC3)c(F)c2)C(=O)O1 [LINEZOLID]
4 µg/mL: [1] | [2] | [3]
